Results on four compounds are retold here after patent US7629457B2, “Method for producing cytosine nucleoside compounds” (priority 2001, dated 2009).

Assay [1] deals with T1, cytidine deaminase (cdd) (Escherichia coli, UniProt P0ABF6).
T1 construct: endogenous in cells; host or cells: E. coli DH5alpha transformed with pUC-PNP73 (strain MT-10905), whole cell mass suspension
Put plainly: cdd (cytidine deaminase) residual activity of MT-10905 cell mass suspension after processing with organic solvent. Type of assay: biochemical. Conditions: for cdd Activity: organic solvent 50%. The protocol:
To the cell mass suspension of the strain MT-10905 obtained in Reference Example 2 was added a certain amount of methanol so as to attain any one of the methanol concentrations listed in Table 2, and then the suspension was kept at 30° C. for 1 hour. Cytidine deaminase will be expressed as cdd hereafter. The activity of cdd was analyzed after the cell mass suspension was added to 1.0 ml of the reaction solution consisting of 100 mM tris hydrochloride buffer (pH 8.0) and 20 mM cytidine, and then treated at 50° C. for 2 hours.
The cell mass suspension described above was kept at 30° C. for 1 hour without addition of methanol, and then the activity of cdd of the suspension was set at 100% of relative value.
(§1) The cell mass suspension heat treated for 20 hours in Example 3 was processed with methanol in the same way as in Example 1. The individual activities of the cell mass suspension that was heat treated for 20 hours in Example 3 were set at 100% and the remaining activities were expressed with relative values. The results shown in Table 5 reveal that the activity of PNP was reduced minimally, but the activities of both cod and cdd were eliminated nearly completely.

The target in assay [2] is T2, PNP (purine nucleoside phosphorylase) (Escherichia coli, UniProt P0ABP8).
T2 construct: expressed in transfected cells; host or cells: E. coli DH5alpha transformed with plasmid pUC-PNP73 (strain MT-10905), whole cell mass suspension
Put plainly: PNP residual activity of MT-10905 cell mass suspension after processing with organic solvent. Conditions: for PNP Activity: organic solvent 50%. The class given is biochemical. As to the method:
The activity of PNP was analyzed after the cell mass suspension was added to 1.0 ml of the reaction solution consisting of 20 mM 2′-deoxyribose-1-phosphate di(monocyclohexylammonium) salt (produced by SIGMA), 5.4 mM adenine (produced by Wako Pure Chemicals, guaranteed grade) and 100 mM tris hydrochloride buffer (pH 8.0), and then treated at 50° C. or 15 minutes. The above reaction was conducted using such an amount of the cell mass as to produce not more than 2 mM deoxyadenosine. The cell mass suspension described above was kept at 30° C. for 1 hour without addition of methanol, and then the activity of PNP of the suspension was set at 100% of relative value. The results shown in Table 2 reveal that the activity of PNP was reduced minimally, but the activity of cdd was eliminated nearly completely.
as §1

The subject of assay [3] is cytosine deaminase (cod). In words: cod (cytosine deaminase) residual activity of heat treated MT-10905 cell mass suspension after processing with methanol. The note with it: cells heat treated 60° C. 20 hours = 100%. Type of assay: biochemical, Escherichia coli. As to the method: The cell mass suspension of the strain MT-10905 obtained in Reference Example 2 was kept at 60° C. Cytosine deaminase will be expressed as cod hereafter. The activity of cod was analyzed after the cell mass suspension was added to 100 mM tris hydrochloride buffer (pH 8.0) and 20 mM cytosine, and then treated at 50° C. for 2 hours. The cod activity of the cell mass suspension that was not heat treated was set at 100% and the remaining activities were expressed with relative values. The results shown in Table 4 reveal that the activity of PNP was reduced minimally, but the activity of cod was eliminated nearly completely.
as §1

Where [4] appears, read: MeOH 10%, 30° C. 1 hour, no methanol = 100%.
The mark [5] stands for this setting: MeOH 10%, cells heat treated 60° C. 20 hours = 100%.
Where [6] appears, read: MeOH 25%, 30° C. 1 hour, no methanol = 100%.
Setting [7] is: MeOH 25%, cells heat treated 60° C. 20 hours = 100%.
Where [8] appears, read: MeOH 50%, 30° C. 1 hour, no methanol = 100%.
Where [9] appears, read: MeOH 50%, cells heat treated 60° C. 20 hours = 100%.
Setting [10] is: MeOH 70%, 30° C. 1 hour, no methanol = 100%.
The mark [11] stands for this setting: MeOH 70%, cells heat treated 60° C. 20 hours = 100%.
Setting [12] is: MeOH 90%, 30° C. 1 hour, no methanol = 100%.
Setting [13] is: MeOH 90%, cells heat treated 60° C. 20 hours = 100%.

T2 sequence (P0ABP8 2-239): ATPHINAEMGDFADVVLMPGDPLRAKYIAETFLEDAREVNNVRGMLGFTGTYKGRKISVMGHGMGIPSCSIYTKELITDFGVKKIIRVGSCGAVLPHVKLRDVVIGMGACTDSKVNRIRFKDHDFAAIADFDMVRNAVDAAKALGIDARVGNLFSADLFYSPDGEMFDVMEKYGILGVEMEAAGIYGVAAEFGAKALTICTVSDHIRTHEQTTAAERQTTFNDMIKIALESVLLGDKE
T1 sequence (P0ABF6 whole entry): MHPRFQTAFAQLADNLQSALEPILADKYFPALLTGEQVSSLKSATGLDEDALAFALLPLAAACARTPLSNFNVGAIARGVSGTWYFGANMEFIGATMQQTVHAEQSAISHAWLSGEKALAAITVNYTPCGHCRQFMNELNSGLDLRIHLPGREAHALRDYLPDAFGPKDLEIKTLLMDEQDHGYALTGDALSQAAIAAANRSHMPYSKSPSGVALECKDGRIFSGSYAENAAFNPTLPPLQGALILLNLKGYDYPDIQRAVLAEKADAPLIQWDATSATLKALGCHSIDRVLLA

`C[S+](C)[O-]` [Dimethyl Sulfoxide]: the “cdd Activity” value in assay [1] (30° C. 1 hour) was 4%. Moreover, the “PNP Activity” value in assay [2] (30° C. 1 hour) was found to be 96%.

Take `CO` [MeOH, methanol]: the “cod Residual Activity (%)” value in assay [3] (MeOH 10%) is recorded as 90%; in assay [3] (MeOH 25%), 80%; in assay [3] (MeOH 50%), 50%; in assay [3] (MeOH 70%), 30%; in assay [3] (MeOH 90%), 10%. Moreover, the “cdd Residual Activity (%)” value turned out to be 80% in assay [1] (setting [4]); 80% in assay [1] (setting [5]); 50% in assay [1] (setting [6]); 50% in assay [1] (setting [7]); 10% in assay [1] (setting [8]); 10% in assay [1] (setting [9]). Also, the “cdd Residual Activity (%)” value worked out at 0.5% in assay [1] (setting [10]), 0.5% in assay [1] (setting [11]), 0.1% in assay [1] (setting [12]) and 0.1% in assay [1] (setting [13]). The “PNP Residual Activity (%)” value amounted to 100% in assay [2] (setting [4]); 100% in assay [2] (setting [5]); 99% in assay [2] (setting [6]); 98% in assay [2] (setting [7]); 98% in assay [2] (setting [8]); 96% in assay [2] (setting [9]). In addition, the “PNP Residual Activity (%)” value was 97% in assay [2] (setting [10]), 96% in assay [2] (setting [11]), 97% in assay [2] (setting [12]) and 96% in assay [2] (setting [13]).

As to `CN(C)C=O` [N,N-Dimethylformamide], the “cdd Activity” value in assay [1] (30° C. 1 hour) turned out to be 5%. The “PNP Activity” value in assay [2] (30° C. 1 hour) is 97%.

For `CN1CCN(C)C1=O` [N,N-Dimethylimidazolidinone], in assay [1] (30° C. 1 hour), the “cdd Activity” value is listed as 4%. For the same compound, in assay [2] (30° C. 1 hour), the “PNP Activity” value is 95%.
